The record followed here is PubChem BioAssay (NCI).

Where “and” joins values, the source holds several entries; their conditions need not be identical. Equal entries are not always repeated.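 Growth conditions: 96-well plates. Treatment: test compound, 48 hours, 5 concentrations. Analysis: linear interpolation between bracketing concentrations; unreached endpoints set to highest concentration. Here, GI50 denotes the concentration required for 50% inhibition of growth. Definition used: TGI = concentration required for complete inhibition of growth.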 A value given as a limit tells only on which side of the number the result lay.

One assay relates to SNB-78 CNS. Briefly: DTP human tumour cell line panel, 48 h.
In turn, `Cc1ccc(S(=O)(=O)N/N=C(\c2nc3ccc([N+](=O)[O-])cc3[nH]c2=O)C(O)c2ccccc2Cl)cc1` (centres undefined) displayed a TGI of over 100 µM. In turn, `COC1OC(C)C(OCc2ccccc2)C(OS(=O)(=O)c2ccc(C)cc2)C1OS(=O)(=O)c1ccc(C)cc1` (centres undefined) gave a TGI of over 100 µM. For `Cc1ccc2nc3c(Cl)c(C)c(=O)cc-3sc2c1`, the GI50 was 54 µM and the concentration for total growth inhibition (TGI) is over 100 µM.

A further assay deals with BT-549 breast. Description: DTP human tumour cell line panel, 48 h.
With `Cc1cc2c(Br)cc(Br)c(O)c2nc1C(=O)c1ccccc1`, the TGI was over 100 µM. Take `CC1CCCc2c1nn(C(=O)/C=C(\N)c1ccccc1)c2N` (centres undefined): the GI50 was 24.3 µM and the TGI was 93.7 µM. As to `CCSc1nc(N)c2cn[nH]c2n1`, the GI50 was 52.1 µM and the TGI is over 100 µM.

Turning to `O=c1c2c3c(sc2n2c(-c4cc(-c5ccccc5)nn4-c4ccccc4)nnc2n1Cc1ccccc1)CCCC3`, the GI50 was over 100 µM and the TGI is over 100 µM. Take `C[C@H]1[C@H](C)CC[C@]2(C(=O)NCCNCCN)CC[C@]3(C)C(=CC[C@@H]4[C@@]5(C)CCC(=O)C(C)(C)[C@@H]5CC[C@]43C)[C@H]12`: the GI50 was 6.45 µM and the TGI turned out to be 24.1 µM. Taken in the same sequence, the figures for `COc1ccc(CC(C)C(C)Cc2ccc(OC)c(OC)c2)cc1OC` (centres undefined) were over 1400 µM and over 1400 µM. With `Cc1ccc2c(c1)Sc1ccc(N=NN(C)C)cc1N2C`, the TGI was over 100 µM. Take `Cc1ncc(C(=O)Nc2ccc(CN3CCN(C)CC3)c(C(F)(F)F)c2)cc1C#Cc1cnc(NC2CC2)c2ncccc12`: the GI50 was 4.28 µM and the TGI was found to be 8.56 µM. `C=CCO/N=C/c1cc(NC(=S)c2ccoc2C)ccc1Cl` yielded a TGI of 34.7 µM. Turning to `CCCCCCCCCCN=C(c1ccc(N(C)C)cc1)c1ccc(N(C)C)cc1`, the GI50 was 0.857 µM and the TGI came to 52.9 µM. Take `CCCCCCCCCCCCCCCCCCNC(=O)[C@H]1CSC(c2cccs2)N1` (some centres undefined): the GI50 is 0.983 µM and the TGI was 1.89 µM.

In the case of `Cn1c2ccccc2c2c(=O)c3ccccc3[nH]c21`, the GI50 is 73.3 µM and the TGI is over 100 µM.

In another assay the test system is LXFL 529 NSCLC. Briefly: DTP human tumour cell line panel, 48 h.
`CC1(c2ccccc2)CC(c2ccccc2)=NO1` (centres undefined) gave a TGI of over 100 µM. In the case of `C[n+]1c2ccccc2cc2c(CNC(CCCN=C(N)N)C(=O)O)cccc21` (centres undefined), the GI50 is 0.659 µM; the TGI was 2.12 µM and 2.14 µM. Take `Cc1cc2c(Br)cc(Br)c(O)c2nc1C(=O)c1ccccc1`: the TGI was 80.6 µM. `CC(=O)[O-].CC(=O)[O-].CC(=O)[O-].CC(=O)[O-].[Mo+2].[Mo+2]`: the GI50 is over 100 µM and the TGI was over 100 µM. `CCOC(=O)C(=O)Nc1ccccc1C(F)(F)F` came in with a TGI of over 100 µM.

Take `COc1ccc(Nc2nc3ccccc3nc2-c2cccs2)cc1`: the TGI was over 100 µM. Still for that read-out and setting: next, `CCOC(=O)/C(=C/c1cccc(OC)c1)N(CC)CC`: over 100 µM.

For the compound `Cc1nnc(N/N=C(/C(=O)C(C#N)c2ccccc2)C(C#N)c2ccccc2)n1N` (centres undefined), the TGI turned out to be 10.6 µM.

`CCOC(=O)c1ccc(N[C@@H]2c3cc4c(cc3C(C3=CC(=O)C(=O)C(OC)=C3)[C@H]3C(=O)OCC32)OCO4)cc1` (some centres undefined): the concentration for total growth inhibition (TGI) amounted to 29.4 µM.

On to `CNC(SC)=C1C(=O)OC(C)(C)OC1=O`, for which the TGI is over 100 µM. `NC(=O)/C=C/C(=O)O` came in with a TGI of over 5000 µM. On to `CC(CC(=O)Nc1ccc(NC(=O)CC(C)N=NC(N)=S)cc1)N=NC(N)=S` (centres undefined), for which the TGI was over 100 µM. Consider `CC(=O)OC1COC(n2c(=S)n(-c3ccccc3)c(=O)c3cc(Br)ccc32)C(OC(C)=O)C1OC(C)=O` (centres undefined), for which the TGI is over 100 µM. Turning to `CC1=C(C(=O)Nc2ccccc2C)C(/C=C/c2ccccc2)C(C(=O)Nc2ccccc2C)=C(C)N1`, the TGI was over 100 µM. Still for that read-out and setting: next, `CC(C)c1ccccc1NC(=O)/C(Cl)=C1/Sc2ccccc2NC1=O`: over 100 µM. Same read-out and setting: next, `CC(=O)OCC1OC(n2cc([N+](=O)[O-])c(=O)[nH]c2=O)C(OC(C)=O)C(OC(C)=O)C1OC(C)=O` (centres undefined): over 100 µM. In the case of `Cc1cn(C2OC(C)(CO)C(O)C2O)c(=O)[nH]c1=O` (centres undefined), the TGI was over 100 µM.

For `CC1(Cc2ccccc2)NC(=S)NC1=O` (centres undefined), the TGI is over 100 µM. Compound `Cc1ccc(S(=O)(=O)N/N=C(\c2nc3ccc([N+](=O)[O-])cc3[nH]c2=O)C(O)c2ccccc2Cl)cc1` (centres undefined) displayed a TGI of over 100 µM. Consider `COC1OC(C)C(OCc2ccccc2)C(OS(=O)(=O)c2ccc(C)cc2)C1OS(=O)(=O)c1ccc(C)cc1` (centres undefined), for which the TGI was over 100 µM. As to `Cc1ccc2nc3c(Cl)c(C)c(=O)cc-3sc2c1`, the GI50 is 62.9 µM and the TGI was over 100 µM.

In a further assay the test system is DMS 114 small cell lung. Description: DTP human tumour cell line panel, 48 h.
`CC1(c2ccccc2)CC(c2ccccc2)=NO1` (centres undefined) registered a TGI of over 100 µM.

`COc1cccc(/C=C2\CCC(C)(CN(C)C)C2=O)c1` (centres undefined) showed a TGI of over 100 µM. Take `Cl[Si]1(Cl)Oc2ccccc2O[Si](Cl)(Cl)Oc2ccccc2O1`: the TGI stood at 6.03 µM. Regarding `C[n+]1c2ccccc2cc2c(CNC(CCCN=C(N)N)C(=O)O)cccc21` (centres undefined), the GI50 is 1.62 µM; the total growth inhibition concentration (TGI) is 1.16 µM and 3.36 µM.

In turn, `Cc1cc2c(Br)cc(Br)c(O)c2nc1C(=O)c1ccccc1` showed a TGI of 97.7 µM. With `CC1(C)OC2COC3(CNO)OC(C)(C)OC3C2O1` (centres undefined), the TGI was over 100 µM.

Consider `COc1ccc(Nc2nc3ccccc3nc2-c2cccs2)cc1`, for which the TGI is over 100 µM. Compound `CCOC(=O)/C(=C/c1cccc(OC)c1)N(CC)CC` showed a TGI of over 100 µM. `Cc1nnc(N/N=C(/C(=O)C(C#N)c2ccccc2)C(C#N)c2ccccc2)n1N` (centres undefined) returned a TGI of 13.4 µM.

The TGI is the concentration at which net growth stops. A low value points to more potent growth arrest. The GI50 is the concentration that inhibits growth by half.
